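A five-concentration, 48-hour dose response in 96-well plates underlies each endpoint, interpolated linearly between surrounding concentrations. GI50 is the concentration that inhibits growth by half.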 The source made the active and inactive calls. Rule as the data show it: active = GI50 up to about 1.1 µM and inactive = higher.
Tests used:
Experiment in all cases: DTP human tumour cell line panel, 48 h
[1] = tested on: KM-20L2
[2] = tested on: A498
[3] = tested on: MOLT-4
[4] = tested on: OVCAR-3
[5] = tested on: OVCAR-4
[6] = tested on: OVCAR-8
[7] = tested on: COLO 205
[8] = tested on: TK-10
[9] = tested on: DMS-273
[10] = tested on: UACC-62
[11] = tested on: LXFL 529
[12] = tested on: NCI-H23
[13] = tested on: NCI-H522
[14] = tested on: NCI-H460
[15] = tested on: LOX IMVI
[16] = tested on: XF498
[17] = tested on: Hs-578T
[18] = tested on: MDA-N
[19] = tested on: MDA-MB-231
[20] = tested on: T47D

Measured: GI50

Clc1ccc(CCn2cncn2)cc1
inactive: [1] > 100 µM | [2] > 100 µM | [3] > 100 µM | [4] > 100 µM | [5] > 100 µM | [6] > 100 µM | [7] > 100 µM | [8] > 100 µM | [9] > 100 µM | [10] > 100 µM | [11] > 100 µM | [12] > 100 µM | [13] > 100 µM | [14] > 100 µM | [15] > 100 µM

CC(=O)c1ccc(OCC(O)CO)cc1 (configuration not stated)
inactive: [1] > 100 µM | [2] > 100 µM | [3] > 100 µM | [4] > 100 µM | [5] > 100 µM | [6] > 100 µM | [7] 35.6 µM | [8] > 100 µM | [9] > 100 µM | [10] > 100 µM | [11] 51.8 µM | [12] > 100 µM | [13] > 100 µM | [14] > 100 µM

O=C1c2ccccc2C2(O)NC(=S)N(c3ccccc3)C12O (configuration not stated)
inactive: [1] > 100 µM | [3] > 100 µM | [4] > 100 µM | [5] > 100 µM | [6] > 100 µM | [7] > 100 µM | [8] > 100 µM | [10] > 100 µM | [11] > 100 µM | [12] > 100 µM | [13] > 100 µM | [14] > 100 µM | [16] > 100 µM | [15] > 100 µM

CCOC(=O)/C(=C/c1ccco1)P(=O)(OCC)OCC
inactive: [2] > 100 µM | [3] > 100 µM | [5] > 100 µM | [6] > 100 µM | [7] > 100 µM | [8] > 100 µM | [10] > 100 µM | [11] > 100 µM | [12] > 100 µM | [13] > 100 µM | [14] > 100 µM | [16] > 100 µM | [15] > 100 µM

O=c1c2cccnc2[nH]c2ccc3cn[nH]c3c12
inactive: [17] 6.21 µM | [2] > 10 µM | [18] > 10 µM | [3] > 10 µM | [4] > 10 µM | [5] > 10 µM | [6] 6.76 µM | [7] > 10 µM | [8] > 10 µM | [10] > 10 µM | [19] 8.53 µM | [12] > 10 µM | [13] > 10 µM | [14] 7.43 µM | [15] 5.58 µM | [20] > 10 µM

COc1ccc(C(=O)N=C2N(c3ccccc3)C(=N/c3ccccc3)/C(=N\c3ccccc3)N2c2ccccc2)cc1
inactive: [17] 7.78 µM | [2] 19.2 µM | [18] 19.2 µM | [3] > 100 µM | [4] > 100 µM | [5] 21.9 µM | [6] 20 µM | [7] > 100 µM | [8] 18.5 µM | [10] 37.1 µM | [19] > 62.8 µM | [12] 39.3 µM | [13] 30.7 µM | [14] 47.1 µM | [15] 49 µM | [20] > 58.6 µM

COC(=O)C1=C(C(=O)OC)SC2(S1)C1=C(CCC1)SC(C(=O)OC)=C2C(=O)OC
inactive: [17] 18.5 µM | [2] 9.12 µM | [18] 14.5 µM | [3] 2.29 µM | [4] 12.2 µM | [5] 15.1 µM | [6] 10.2 µM | [7] 13.8 µM | [8] 14.9 µM | [10] 15 µM | [19] 18.8 µM | [12] 18.6 µM | [13] 2.99 µM | [14] 5.37 µM | [15] 3.33 µM | [20] 9.25 µM

O=C1OC(c2ccco2)=N/C1=C\c1ccc(Cl)c(Cl)c1
inactive: [17] 36.1 µM | [2] > 100 µM | [18] > 100 µM | [3] > 100 µM | [4] 89.7 µM | [5] 85.1 µM | [6] 56.2 µM | [7] > 100 µM | [8] 66.7 µM | [10] > 100 µM | [19] > 100 µM | [12] > 100 µM | [13] 51.4 µM | [14] 88.7 µM | [15] > 100 µM | [20] 40.9 µM

Cc1nc2c(n1-c1ccccc1)C(=O)c1ccccc1C2=O
inactive: [2] > 100 µM | [3] 30.3 µM | [4] 20.7 µM | [5] 28.2 µM | [6] 42.4 µM | [8] > 100 µM | [9] 39.4 µM | [10] 23.4 µM | [12] 22.4 µM | [13] 25.2 µM | [14] 39.3 µM

Cc1nc2cc(/N=N/c3c(C)noc3C)ccc2[nH]1
inactive: [17] 16.5 µM | [2] 11.1 µM | [18] 16.8 µM | [3] 17.9 µM | [4] 18.1 µM | [5] 64.7 µM | [6] 24.5 µM | [7] 15.1 µM | [8] 22.9 µM | [10] 27 µM | [19] 28.2 µM | [12] 35.3 µM | [13] 23.3 µM | [14] 21.8 µM | [15] 16.6 µM | [20] 1.67 µM

COC1OC(C(C)O)C2OC(C)(C)OC12 (configuration not stated)
inactive: [17] > 100 µM | [2] > 100 µM | [18] > 100 µM | [3] > 100 µM | [4] > 100 µM | [5] > 100 µM | [6] > 100 µM | [7] > 100 µM | [8] > 100 µM | [10] > 100 µM | [19] > 100 µM | [12] > 100 µM | [13] > 100 µM | [14] > 100 µM | [15] > 100 µM | [20] > 100 µM

CC1(C)OC2OC(C(=O)c3ccccc3)C3OC(C)(C)OC3C2O1 (configuration not stated)
inactive: [17] > 100 µM | [2] > 100 µM | [18] > 100 µM | [3] > 100 µM | [4] > 100 µM | [5] > 100 µM | [6] > 100 µM | [7] > 100 µM | [8] > 100 µM | [10] > 100 µM | [19] > 100 µM | [12] > 100 µM | [13] > 100 µM | [14] > 100 µM | [15] > 100 µM | [20] > 100 µM

CN(C)/C=C/c1nnnn1-c1ccc(I)cc1
inactive: [17] 13.6 µM | [2] 40.8 µM | [18] 22.4 µM | [3] 15.1 µM | [4] 23.6 µM | [5] 20.5 µM | [6] 19.5 µM | [7] > 100 µM | [8] 30.5 µM | [10] 12.4 µM | [19] 16.6 µM | [12] 24.7 µM | [13] 25.5 µM | [14] 31.1 µM | [15] 16.6 µM | [20] 9.44 µM

O=C1Sc2ccccc2C(=O)N2CCSC12 (configuration not stated)
inactive: [1] > 100 µM | [2] 31 µM | [3] > 100 µM | [4] > 100 µM | [6] > 100 µM | [7] > 100 µM | [8] > 100 µM | [9] > 100 µM | [10] > 100 µM | [11] > 100 µM | [12] > 100 µM | [14] > 100 µM | [15] > 100 µM

Nc1ccc(-c2nc3ccccc3s2)cc1
inactive: [1] 37.8 µM | [17] 36.1 µM | [2] 29.7 µM | [18] 19.5 µM | [3] 23.1 µM | [4] 13.3 µM | [5] 14.8 µM | [6] 12.8 µM | [7] 23.8 µM | [8] 24.5 µM | [10] 18.4 µM | [11] 17.5 µM | [19] 17.9 µM | [12] 18.8 µM | [13] 20.6 µM | [14] 20.8 µM | [15] 16.8 µM | [20] 20.7 µM

O=C(O)CCS/C(=C\C(SCCC(=O)O)c1ccc(Cl)cc1)c1ccc(Cl)cc1 (configuration not stated)
inactive: [17] 63.5 µM | [2] 19.7 µM | [18] 36.6 µM | [3] 37.2 µM | [4] 21.6 µM | [5] 41.2 µM | [6] 53.5 µM | [7] 21.4 µM | [8] 80.7 µM | [10] 18.4 µM | [19] 71.4 µM | [12] 42.5 µM | [13] 33.5 µM | [14] 50.1 µM | [15] 25.5 µM | [20] 41.9 µM

CCCCCCCCOCC(O)COC(=O)CCCCCCC (configuration not stated)
inactive: [1] > 100 µM | [2] > 100 µM | [3] 32.7 µM | [4] 18.3 µM | [5] 34.4 µM | [6] > 100 µM | [7] 79.3 µM | [8] > 100 µM | [9] 44.6 µM | [10] 50.8 µM | [11] > 100 µM | [12] 53.6 µM | [14] > 100 µM | [15] > 100 µM

CCCCCC(/C=C/[C@@H]1CC(=O)C[C@H]1O[Si](C)(C)C(C)(C)C)OCOCCOC (some centres not stated)
inactive: [17] 2.9 µM | [2] 11.9 µM | [18] 3.41 µM | [3] 1.75 µM | [4] 3.93 µM | [5] 5.56 µM | [6] 4.23 µM | [7] 5.2 µM | [8] 12.9 µM | [10] 2.7 µM | [19] 4.48 µM | [12] 3.56 µM | [13] 1.93 µM | [14] 17.2 µM | [15] 2.7 µM | [20] 11.1 µM

Reference: ChEMBL document CHEMBL1201862, “PubChem BioAssay data set” (2004)
